Laboratory results taken from US6908919B2, “Substituted polycyclic aryl and heteroaryl pyrazinones useful for selective inhibition of the coagulation cascade” (Pharmacia Corporation, priority 1999, dated 2005).
pIC50: −log10 of the molar value. Where two headings read alike, the source gives them in different places.

Legend:
[1] = target: T1, recombinant soluble tissue factor and recombinant human factor VIIa (TF-VIIa) (Homo sapiens, UniProt P08709); assay: TF-VIIa Assay; type: biochemical; settings: for % Inhibition TF-VIIa (30 µM): at 30 µM inhibitor; for pIC50: read-out: IC50 TF-VIIa
T1 construct: conversion of coagulation factor VII to VIIa by Xa; purchased American Diagnostica, Greenwich Conn; host or cells: VIIa purchased; soluble TF made in house in E. coli

Human factor Xa = Human factor Xa (Homo sapiens, UniProt P00742); assay: Xa Assay; type: biochemical; design: purchased Enzyme Research Laboratories, South Bend Ind; settings: for % Inhibition Factor Xa (30 µM): at 30 µM inhibitor
Human factor Xa, sequence (P00742 41-179 limits assumed): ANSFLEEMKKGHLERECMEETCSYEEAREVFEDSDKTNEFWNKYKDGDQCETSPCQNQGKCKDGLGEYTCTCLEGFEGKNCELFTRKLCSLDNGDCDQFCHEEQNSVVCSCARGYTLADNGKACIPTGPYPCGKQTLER
Human factor Xa, sequence (P00742 235-488 limits assumed): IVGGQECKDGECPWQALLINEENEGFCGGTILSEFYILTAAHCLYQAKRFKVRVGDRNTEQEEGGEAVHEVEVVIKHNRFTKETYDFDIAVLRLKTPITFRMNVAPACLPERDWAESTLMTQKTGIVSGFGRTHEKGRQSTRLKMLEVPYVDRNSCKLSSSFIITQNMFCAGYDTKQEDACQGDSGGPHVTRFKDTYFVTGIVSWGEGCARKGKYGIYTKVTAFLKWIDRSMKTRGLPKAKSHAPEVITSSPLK

T1 sequence (P08709 61-212 limits assumed): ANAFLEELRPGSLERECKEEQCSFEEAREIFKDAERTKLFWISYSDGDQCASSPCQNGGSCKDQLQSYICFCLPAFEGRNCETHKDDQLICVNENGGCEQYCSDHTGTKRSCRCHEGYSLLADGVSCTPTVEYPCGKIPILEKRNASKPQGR
T1 sequence (P08709 213-466 limits assumed): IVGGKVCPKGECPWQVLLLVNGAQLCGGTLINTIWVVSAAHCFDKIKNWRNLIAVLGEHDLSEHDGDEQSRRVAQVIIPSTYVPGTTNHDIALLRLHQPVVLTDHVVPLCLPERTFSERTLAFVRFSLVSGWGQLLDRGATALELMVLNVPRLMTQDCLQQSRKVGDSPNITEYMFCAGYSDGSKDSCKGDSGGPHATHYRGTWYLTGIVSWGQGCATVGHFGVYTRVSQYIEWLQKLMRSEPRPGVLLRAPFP
T1 sequence (P13726 33-251 partner limits assumed): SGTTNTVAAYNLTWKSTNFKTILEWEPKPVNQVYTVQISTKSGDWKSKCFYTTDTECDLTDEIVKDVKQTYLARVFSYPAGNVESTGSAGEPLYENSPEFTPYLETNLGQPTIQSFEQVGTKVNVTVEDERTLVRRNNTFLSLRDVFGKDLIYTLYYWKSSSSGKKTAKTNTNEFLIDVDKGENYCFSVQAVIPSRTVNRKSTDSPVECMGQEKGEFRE

| SMILES | % Inhibition TF-VIIa (100 µM) ([1]; inhibitor at 100 µM) [%] | % Inhibition Factor Xa (100 µM) (Human factor Xa; inhibitor at 100 µM) [%] | other results |
| --- | --- | --- | --- |
| O=C(Cn1c(CCc2ccccc2)c(Cl)nc(NCCc2ccccc2)c1=O)NCCc1ccncc1 [Example E-0066] | 0 | 0 | – |
| O=C(Cn1c(-c2ccc3c(c2)OCO3)c(Cl)nc(NCCc2ccc(Cl)cc2)c1=O)NCCc1ccncc1 [Example E-0044] | 0 | 0 | – |
| COc1ccc(-c2c(Cl)nc(NCCc3ccncc3)c(=O)n2CC(=O)NCc2ccc(C(=N)N)cc2)cc1 [1471-37] | – | – | % Inhibition TF-VIIa (30 µM) [1]: 39%; % Inhibition Factor Xa (30 µM) (Human factor Xa): 7% |
| O=C(Cn1c(Cc2ccccc2)c(Cl)nc(NCc2ccncc2)c1=O)NCCc1ccncc1 [Example E-0064] | 0 | 0 | – |
| O=C(Cn1c(-c2ccc(Cl)cc2)c(Cl)nc(NCCc2ccncc2)c1=O)NCCc1ccncc1 [Example E-0022] | 0 | 0 | – |
| N=C(N)c1ccc(CNC(=O)Cn2c(-c3ccccc3)c(Cl)nc(NCc3c(F)cccc3C(F)(F)F)c2=O)cc1 [1512-44] | – | – | % Inhibition TF-VIIa (30 µM) [1]: 43%; % Inhibition Factor Xa (30 µM) (Human factor Xa): 6% |
| CCc1c(Cl)nc(NCCc2cccc(Cl)c2)c(=O)n1CC(=O)NCc1ccc(C(=N)N)cc1 [1471-62] | – | – | % Inhibition TF-VIIa (30 µM) [1]: 4%; % Inhibition Factor Xa (30 µM) (Human factor Xa): 0% |
| N=C(N)c1ccc(CNC(=O)C(Cc2ccccc2)n2c(-c3ccccc3)c(Cl)nc(NC3CCC3)c2=O)cc1 (centres unmarked) [Example 1517-08] | – | – | % Inhibition TF-VIIa (30 µM) [1]: 43%; % Inhibition Factor Xa (30 µM) (Human factor Xa): 0% |
| O=C(Cn1c(CCc2ccccc2)c(Cl)nc(NCc2ccccc2)c1=O)NCCc1ccncc1 [Example E-0065] | 0 | 0 | – |
| O=C(Cn1c(-c2ccc3c(c2)OCO3)c(Cl)nc(NCCc2ccncc2)c1=O)NCCc1ccncc1 [Example E-0046] | 0 | 0 | – |
| O=C(Cn1c(-c2cccc(Cl)c2)c(Cl)nc(NCCc2ccccc2)c1=O)NCCc1ccncc1 [Example E-0076] | 0 | 1 | – |
| O=C(Cn1c(-c2ccc(Cl)cc2)c(Cl)nc(NCc2ccccc2)c1=O)NCCc1ccncc1 [Example E-0025] | 0 | 0 | – |
| N=C(N)c1ccc(CNC(=O)Cn2c(-c3ccc(Cl)cc3)c(Cl)nc(NCc3ccncc3)c2=O)cc1 [1471-19] | – | – | % Inhibition TF-VIIa (30 µM) [1]: 33%; % Inhibition Factor Xa (30 µM) (Human factor Xa): 26% |
| O=C(Cn1c(-c2ccc3c(c2)OCO3)c(Cl)nc(NCCc2cccc(Cl)c2)c1=O)NCCc1ccncc1 [Example E-0043] | 0 | 0 | – |
| O=C(Cn1c(CCc2ccccc2)c(Cl)nc(NCCc2ccncc2)c1=O)NCCc1ccncc1 [Example E-0070] | 0 | 0 | – |
| O=C(Cn1c(-c2cccc(Cl)c2)c(Cl)nc(NCCc2ccccc2)c1=O)NCCc1cccnc1 [Example E-0077] | 0 | 3 | – |
| O=C(Cn1c(-c2ccc(Cl)cc2)c(Cl)nc(NCCc2ccccc2)c1=O)NCCc1ccncc1 [Example E-0026] | 0 | 0 | – |

| SMILES | % Inhibition TF-VIIa (100 µM) ([1]; inhibitor at 100 µM) [%] | % Inhibition Factor Xa (100 µM) (Human factor Xa; inhibitor at 100 µM) [%] | other results |
| --- | --- | --- | --- |
| O=C(Cn1c(-c2ccc(Cl)cc2)c(Cl)nc(NCCc2ccc(Cl)cc2)c1=O)NCCc1ccncc1 [Example E-0020] | 0 | 1 | – |
| O=C(Cn1c(-c2ccc(-c3ccccc3)cc2)c(Cl)nc(NCc2ccccc2)c1=O)NCCc1cccnc1 [Example E-0110] | – | – | % Inhibition TF-VIIa (100 µM) [1]: 0%; % Inhibition Factor Xa (100 µM) (Human factor Xa): 3% |
| O=C(Cn1c(-c2cccc(Cl)c2)c(Cl)nc(NCc2ccccc2)c1=O)NCCc1cccnc1 [Example E-0086] | 0 | 4 | – |
| CC(C)Nc1nc(Cl)c(-c2cc(N)cc(C(=O)NCc3ccc(Br)cc3)c2)n(CC(=O)NCc2ccc(C(=N)N)cc2)c1=O [Example 128-8] | – | – | pIC50 [1]: 7.17; % Inhibition Factor Xa at 100 μM (Human factor Xa; at 100 μM inhibitor): 44% at 100 μM |
| O=C(Cn1c(-c2cccc(Cl)c2)c(Cl)nc(NCc2ccccc2)c1=O)NCCc1cccnc1 [Example E-0074] | 0 | 0 | – |
| O=C(Cn1c(-c2ccc(Cl)cc2)c(Cl)nc(NCCc2cccc(Cl)c2)c1=O)NCCc1ccncc1 [Example E-0019] | 0 | 0 | – |
| N=C(N)c1ccc(CNC(=O)Cn2c(-c3ccccc3)c(Cl)nc(NCc3ccccn3)c2=O)cc1 [1507-24] | – | – | % Inhibition TF-VIIa (30 µM) [1]: 0%; % Inhibition Factor Xa (30 µM) (Human factor Xa): 15% |
| O=C(Cn1c(-c2cccc(Cl)c2)c(Cl)nc(NCCc2cccc(Cl)c2)c1=O)NCCc1cccnc1 [Example E-0092] | 1 | 3 | – |
| O=C(Cn1c(-c2cccc(Cl)c2)c(Cl)nc(NCc2ccccc2)c1=O)NCCc1ccncc1 [Example E-0085] | 0 | 0 | – |
| N=C(N)c1ccc(CNC(=O)Cn2c(-c3ccccc3)c(Cl)nc(NCc3cccc(OC(F)(F)F)c3)c2=O)cc1 [1512-40] | – | – | % Inhibition TF-VIIa (30 µM) [1]: 40%; % Inhibition Factor Xa (30 µM) (Human factor Xa): 3% |
| COC(=O)c1cc(N)cc(-c2c(Cl)nc(NC(C)C)c(=O)n2CC(=O)NCc2ccc(C(=N)N)cc2)c1 [Example 125] | – | – | pIC50 [1]: 7.42; inhibition at 100 µM (Human factor Xa; at 100 μM inhibitor): 36% |
| COc1ccc(-c2c(Cl)nc(NCCN3CCOCC3)c(=O)n2CC(=O)NCCc2ccncc2)cc1 [Example E-0039] | 0 | 1 | – |
| O=C(Cn1c(-c2ccc(-c3ccccc3)cc2)c(Cl)nc(NCCc2ccccc2)c1=O)NCCc1ccncc1 [Example E-0112] | – | – | % Inhibition TF-VIIa (100 µM) [1]: 11%; % Inhibition Factor Xa (100 µM) (Human factor Xa): 1% |
| Cc1cc(Cl)cc(Cl)c1CNc1nc(Cl)c(-c2ccccc2)n(CC(=O)NCc2ccc(C(=N)N)cc2)c1=O [1512-45] | – | – | % Inhibition TF-VIIa (30 µM) [1]: 27%; % Inhibition Factor Xa (30 µM) (Human factor Xa): 11% |
| Cc1c(Cl)nc(NCCN2CCOCC2)c(=O)n1CC(=O)NCCc1ccncc1 [Example E-0007] | 0 | 0 | – |
| O=C(Cn1c(-c2ccccc2)c(Cl)nc(NCc2ccccc2)c1=O)NCCc1ccncc1 [Example E-0009] | 0 | 1 | – |
| COc1ccc(-c2c(Cl)nc(NCc3ccccc3)c(=O)n2CC(=O)NCCc2ccncc2)cc1 [Example E-0033] | 0 | 0 | – |
